In patent publication US9409905B2, “Antibacterial compounds and methods for use” (PTC THERAPEUTICS, INC., priority 2011, dated 2016) one finds MIC data, which are given here for eight molecules.

For experiment [1], the system named is Staphylococcus aureus (S. aureus) 29213. Kind of experiment: Antibacterial activity, microbroth dilution MIC (Table 1). The format is cell-based. The following applies: microbroth dilution, Gram-positive S. aureus 29213, read-out: MIC, 29213. A digest of the protocol:
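Microbroth dilution was used. MIC, in μg/mL, is the lowest drug concentration preventing macroscopically visible growth under the test conditions.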
For orientation: Broth dilution looks for growth in wells or tubes with falling amounts of substance.

Experiment [2] relates to Escherichia coli (E. coli) BAS849. The experiment is described as above. The format is cell-based. The note with it: microbroth dilution, super sensitive Gram-negative E. coli BAS849, read-out: MIC, BAS849. Put shortly: (§1)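 Potency is reported as minimum inhibitory concentration in μg/mL, determined by broth microdilution as the lowest level of compound that stops growth visible to the eye.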

In the next experiment the test system is E. coli 25922. The experiment is described as above. The format is cell-based, Escherichia coli. The note with it: Escherichia coli; microbroth dilution; control Gram-negative E. coli 25922 strain; read-out: MIC, 25922. A digest of the protocol: as §1
Experiment [3] relates to Pseudomonas aeruginosa (P. aeruginosa) 27853. Kind of experiment: Antibacterial activity, MIC (Table 5). It is filed as cell-based. The following applies: P. aeruginosa 27853, read-out: MIC, 27853. Put shortly: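 Compounds are serially diluted in broth and inoculated with the organism. Growth is then inspected macroscopically, and the lowest concentration showing none is taken as the MIC (μg/mL).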

For another experiment, the system named is A. baumannii MXX2240. Put plainly: Antibacterial activity, MIC, resistant strain (Table 4). The format is cell-based. The note with it: Acinetobacter baumannii, MXX2240; resistant A. baumannii MMX2240, multi-drug resistant clinical isolate; read-out: MIC, MMX2240. Put shortly:
(§2)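 Broth microdilution; MIC (μg/mL) = lowest concentration with no macroscopically visible growth. Resistant strains: multi-drug resistant clinical isolates.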

The next experiment deals with K. pneumoniae MXX1232. Described as above. The note with it: Klebsiella pneumoniae, MXX1232; resistant K. pneumoniae MMX1232, multi-drug resistant clinical isolate; read-out: MIC, MMX1232. It is filed as cell-based. Put shortly:
as §2

Experiment [4] has as its system Acinetobacter baumannii (A. baumannii) BAA747. Kind of experiment: Antibacterial activity, MIC (Table 4). The format is cell-based. The following applies: A. baumannii BAA747, read-out: MIC, BAA747. Put shortly: as §2
For experiment [5], the system named is Klebsiella pneumoniae (K. pneumoniae) 35657. Kind of experiment: Antibacterial activity, MIC (Table 4). The format is cell-based. The note with it: K. pneumoniae 35657, read-out: MIC, 35657. A digest of the protocol:
as §2

The subject of a further experiment is E. coli LZ3111. Put plainly: Antibacterial activity, MIC, quinolone resistant strain (Table 2). The format is cell-based. The following applies: Escherichia coli, LZ3111, read-out: MIC LZ3111. A digest of the protocol:
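Strain carries mutations conferring high-level quinolone resistance; tested by microbroth dilution, MIC recorded in μg/mL as lowest concentration preventing visible growth.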

In brackets after ≈: the same amount, converted by molar mass.

On to `Cc1c(-c2ccc3[nH]ncc3c2)[nH]c(=O)c(C(=O)O)c1O` [Cpd 398, 4-hydroxy-6-(1H-indazol-5-yl)-5-methyl-2-oxo-1,2-dihydropyridine-3-carboxylic acid], for which the MIC (in experiment [1]; in experiment [2]; with E. coli 25922; in experiment [3]; with A. baumannii MXX2240; in the experiment with K. pneumoniae MXX1232) was 12.5 to 150 µg/mL (≈ 43.8 to 526 µM) each time. For the same molecule, the figures for the minimum inhibitory concentration (MIC) (in experiment [4]; in experiment [5]; in the experiment on E. coli LZ3111) were 12.5 to 150 µg/mL (≈ 43.8 to 526 µM), 12.5 to 150 µg/mL (≈ 43.8 to 526 µM) and 3.5 to 12.5 µg/mL (≈ 12.3 to 43.8 µM), respectively.

For the molecule `Cc1c(-c2ccc3cn[nH]c3c2)[nH]c(=O)c(C(=O)O)c1O` [Cpd 399, 4-hydroxy-6-(1H-indazol-6-yl)-5-methyl-2-oxo-1,2-dihydropyridine-3-carboxylic acid], the MIC (in experiment [1]; in experiment [2]; in the experiment on E. coli 25922; in experiment [3]; in the experiment on A. baumannii MXX2240; with K. pneumoniae MXX1232) was 12.5 to 150 µg/mL (≈ 43.8 to 526 µM) each time. Also, the MIC (in experiment [4]; in experiment [5]; in the experiment on E. coli LZ3111) was 12.5 to 150 µg/mL (≈ 43.8 to 526 µM) throughout.

Consider `CCc1c(-c2cn3ccccc3n2)[nH]c(=O)c(C(=O)O)c1O` [Cpd 400, 5-ethyl-4-hydroxy-6-(imidazo[1,2-a]pyridin-2-yl)-2-oxo-1,2-dihydropyridine-3-carboxylic acid], for which the MIC (usually the lowest concentration that inhibits growth of the organism) is 12.5 to 150 µg/mL (≈ 41.8 to 501 µM) in [1]; 1 to 3.5 µg/mL (≈ 3.34 to 11.7 µM) in experiment [2]; 12.5 to 150 µg/mL (≈ 41.8 to 501 µM) with E. coli 25922; 12.5 to 150 µg/mL (≈ 41.8 to 501 µM) in experiment [3]; 12.5 to 150 µg/mL (≈ 41.8 to 501 µM) with A. baumannii MXX2240; 12.5 to 150 µg/mL (≈ 41.8 to 501 µM) with K. pneumoniae MXX1232. In addition, the MIC (in experiment [4]; in experiment [5]; in the experiment on E. coli LZ3111) was 12.5 to 150 µg/mL (≈ 41.8 to 501 µM) in each case.

For the molecule `CCc1c(-c2cc3c(N(C)C)nc(C)cn3n2)[nH]c(=O)c(C(=O)O)c1O` [Cpd 401, 6-(4-(dimethylamino)-6-methylpyrazolo[1,5-a]pyrazin-2-yl)-5-ethyl-4-hydroxy-2-oxo-1,2-dihydropyridine-3-carboxylic acid], the minimal inhibitory concentration (MIC) is 3.5 to 12.5 µg/mL (≈ 9.79 to 35 µM) in experiment [1]; 3.5 to 12.5 µg/mL (≈ 9.79 to 35 µM) in [2]; 12.5 to 150 µg/mL (≈ 35 to 420 µM) in the experiment on E. coli 25922; 12.5 to 150 µg/mL (≈ 35 to 420 µM) in [3]; 12.5 to 150 µg/mL (≈ 35 to 420 µM) in the experiment with A. baumannii MXX2240; 12.5 to 150 µg/mL (≈ 35 to 420 µM) in the experiment on K. pneumoniae MXX1232. Moreover, the MIC (in experiment [4]; in experiment [5]; in the experiment with E. coli LZ3111) was 12.5 to 150 µg/mL (≈ 35 to 420 µM) each time.

In the case of `CCc1c(-c2cc3c(N4CCCC4)nc(C)cn3n2)[nH]c(=O)c(C(=O)O)c1O` [Cpd 402, 5-ethyl-4-hydroxy-6-(6-methyl-4-(pyrrolidin-1-yl)pyrazolo[1,5-a]pyrazin-2-yl)-2-oxo-1,2-dihydropyridine-3-carboxylic acid], the minimal inhibitory concentration (MIC) in experiment [1] is 3.5 to 12.5 µg/mL (≈ 9.13 to 32.6 µM); in experiment [2], 12.5 to 150 µg/mL (≈ 32.6 to 391 µM); in the experiment on E. coli 25922, 12.5 to 150 µg/mL (≈ 32.6 to 391 µM); in [3], 12.5 to 150 µg/mL (≈ 32.6 to 391 µM); in the experiment on A. baumannii MXX2240, 12.5 to 150 µg/mL (≈ 32.6 to 391 µM); with K. pneumoniae MXX1232, 12.5 to 150 µg/mL (≈ 32.6 to 391 µM). The minimum inhibitory concentration (MIC) (in experiment [4]; in [5]; with E. coli LZ3111) was 12.5 to 150 µg/mL (≈ 32.6 to 391 µM) each time.

As to `CCc1c(-c2cccc3c2ccn3C)[nH]c(=O)c(C(=O)O)c1O` [Cpd 403, 5-ethyl-4-hydroxy-6-(1-methyl-1H-indol-4-yl)-2-oxo-1,2-dihydropyridine-3-carboxylic acid], the MIC was 12.5 to 150 µg/mL (≈ 40 to 480 µM) in experiment [1]; 3.5 to 12.5 µg/mL (≈ 11.2 to 40 µM) in experiment [2]; 12.5 to 150 µg/mL (≈ 40 to 480 µM) with E. coli 25922; 12.5 to 150 µg/mL (≈ 40 to 480 µM) in experiment [3]; 12.5 to 150 µg/mL (≈ 40 to 480 µM) in the experiment on A. baumannii MXX2240; 12.5 to 150 µg/mL (≈ 40 to 480 µM) in the experiment with K. pneumoniae MXX1232. Besides, the MIC (in [4]; in experiment [5]; in the experiment on E. coli LZ3111) was 12.5 to 150 µg/mL (≈ 40 to 480 µM) throughout.

For the molecule `Cc1c(-c2cccc3c2ccn3C)[nH]c(=O)c(C(=O)O)c1O` [Cpd 404, 4-hydroxy-5-methyl-6-(1-methyl-1H-indol-4-yl)-2-oxo-1,2-dihydropyridine-3-carboxylic acid], the MIC in [1] was in the range of 12.5 to 150 µg/mL (≈ 41.9 to 503 µM); in experiment [2] it was 3.5 to 12.5 µg/mL (≈ 11.7 to 41.9 µM); with E. coli 25922, 12.5 to 150 µg/mL (≈ 41.9 to 503 µM); in experiment [3], 12.5 to 150 µg/mL (≈ 41.9 to 503 µM); in the experiment on A. baumannii MXX2240, 12.5 to 150 µg/mL (≈ 41.9 to 503 µM); in the experiment on K. pneumoniae MXX1232, 12.5 to 150 µg/mL (≈ 41.9 to 503 µM). Also, the minimal inhibitory concentration (MIC) (in experiment [4]; in [5]; in the experiment with E. coli LZ3111) was 12.5 to 150 µg/mL (≈ 41.9 to 503 µM) in each case.

Turning to `CCc1c(-c2cc3ccc(OC)cc3n2C)[nH]c(=O)c(C(=O)O)c1O` [Cpd 405, 5-ethyl-4-hydroxy-6-(6-methoxy-1-methyl-1H-indol-2-yl)-2-oxo-1,2-dihydropyridine-3-carboxylic acid], the minimal inhibitory concentration (MIC) in [1] was in the range of 3.5 to 12.5 µg/mL (≈ 10.2 to 36.5 µM); in [2], 3.5 to 12.5 µg/mL (≈ 10.2 to 36.5 µM); with E. coli 25922, 12.5 to 150 µg/mL (≈ 36.5 to 438 µM); in [3], 12.5 to 150 µg/mL (≈ 36.5 to 438 µM); in the experiment with A. baumannii MXX2240, 12.5 to 150 µg/mL (≈ 36.5 to 438 µM); in the experiment with K. pneumoniae MXX1232 it was 12.5 to 150 µg/mL (≈ 36.5 to 438 µM). The MIC (in experiment [4]; in experiment [5]; in the experiment on E. coli LZ3111) was 12.5 to 150 µg/mL (≈ 36.5 to 438 µM) throughout.
